# Measured values: paper PMC8588467, “Rational Design 2-Hydroxypropylphosphonium Salts as Cancer Cell Mitochondria-Targeted Vectors: Synthesis, Structure, and Biological Properties” (Molecules, 2021)
# Like-named read-outs stand apart in the source and are kept apart here.
# How the values were obtained:
# [1] = tested on: HuTu-80 cells; test: Induction of apoptosis, annexin V/propidium iodide flow cytometry; assay type: cell-based, human; conditions: IC50/2, 48-h incubation
# Experimental: Apoptosis is one of the most significant mechanisms used for screening new anti-cancer agents. The apoptosis-inducing effect was carried out on lead compounds 3a, b, k, j and 4c showing high selectivity against HuTu-80 cells. The studies were carried out by flow cytometry at concentrations IC50/2 and IC50 (Figure 4). […] The percentage of apoptotic cells in early and late phases was slightly changed with increase compound concentration up to IC50.
# HuTu 80 cells at 1 × 10^6 cells/well in a final volume of 2 mL were seeded into six-well plates. After 48 h of incubation, various concentrations of compounds 3a,b and 3k were added to wells.
# The cells were harvested at 2000 rpm for 5 min and, then, washed twice with ice-cold PBS, followed by resuspension in binding buffer. Next, the samples were incubated with 5 μL of annexin V-Alexa Fluor 647 (Sigma–Aldrich, St. Louis, MO, USA) and 5 μL of propidium iodide for 15 min at room temperature in the dark. Finally, the cells were analyzed by flow cytometry (Guava easy Cyte, MERCK, Rahway, NJ, USA) within 1 h. The experiments were repeated three times.
# [2] = tested on: WI38 (diploid human embryo lung); test: MTT cytotoxicity, normal cells WI38; assay type: cell-based; conditions: mean ± SD, triplicate, read-out: WI38 IC50 (normal cell line)
# [3] = tested on: PC3 (human prostate adenocarcinoma); test: MTT cytotoxicity, PC3; conditions: for IC50: mean ± SD, triplicate; for SI PC3: IC50 normal cells (WI38) / IC50 cancer cells, ns = no selectivity; for cytotoxic effect against the PC3 line relative to doxorubicin: words
# [4] = tested on: MCF-7 (human breast adenocarcinoma); test: MTT cytotoxicity, MCF-7; assay type: cell-based; conditions: for IC50: mean ± SD, triplicate; for SI MCF-7: IC50 normal cells (WI38) / IC50 cancer cells, ns = no selectivity
# [5] = tested on: A549 (human lung carcinoma); test: MTT cytotoxicity, A549; assay type: cell-based; conditions: for IC50: mean ± SD, triplicate; for SI A549: IC50 normal cells (WI38) / IC50 cancer cells, ns = no selectivity
# [6] = tested on: HuTu-80 cells; test: Mitochondrial membrane potential, JC-10 flow cytometry; assay type: cell-based, human; conditions: for % cells with J-aggregate (red, high membrane potential) / % cells with J-monomer (green, decreased membrane potential): JC-10; for effect on mitochondrial membrane potential: more pronounced with increase of concentration up to IC50
# Excerpt: Apoptosis induction by 3a, b, k, j and 4c through the mitochondrial pathway and HuTu-80 cell line was studied by flow cytometry using the fluorescent dye JC-10 from the Mitochondria Membrane Potential Kit. JC-10 accumulated in the mitochondrial matrix and formed aggregates (J-aggregate) with red fluorescence in normal cells with a high mitochondrial membrane potential. The membrane potential decreased in apoptotic cells. JC-10 started to diffuse out from the mitochondria and converts to the monomeric form (J-monomer) and emits green fluorescence. This is recorded with a flow cytometer. […] The process became more pronounced with an increase of 3a, b, 3k, j and 4c concentrations up to IC50 (Figure 5 and Figure 6).
# Cells were harvested at 2000 rpm for 5 min and then washed twice with ice-cold PBS, followed by resuspension in JC-10 (10 µg/mL) and incubation at 37 °C for 10 min. After the cells were rinsed three times and suspended in PBS, the JC-10 fluorescence was observed by flow cytometry (Guava easy Cyte, MERCK, NJ, USA).
# [7] = tested on: HuTu 80 (human duodenal adenocarcinoma); test: MTT cytotoxicity, HuTu 80; assay type: cell-based; conditions: for IC50: mean ± SD, triplicate; for SI HuTu 80: IC50 normal cells (WI38) / IC50 cancer cells, ns = no selectivity; for anti-cancer activity against the HuTu 80 cell line relative to doxorubicin: words
# [8] = tested on: M-HeLa (human cervix epitheloid carcinoma); test: MTT cytotoxicity, M-HeLa; assay type: cell-based; conditions: for IC50: MTT, mean ± SD, triplicate; for SI M-HeLa: IC50 normal cells (WI38) / IC50 cancer cells, ns = no selectivity
# [9] = tested on: HuTu-80 cells; test: Intracellular ROS production, CellROX Deep Red flow cytometry; assay type: cell-based, human; conditions: for CellROX Deep Red fluorescence intensity (ROS production): control 600; for ROS generation: compared to 3a and 3b and control (untreated cells)
# Excerpt: Increasing the production of reactive oxygen species (ROS) by compounds characterizes the mitochondrial apoptotic pathway. Mitochondria are a potential source and target of ROS. ROS lead to disruption of mitochondrial functions and, as a consequence, to irreversible cell damage. In this regard, the effect of test compounds in HuTu-80 cells on ROS production, using flow cytometry analysis and CellROX® Deep Red flow cytometry kit was investigated. Data presented in Figure 7 show a significant increase in CellROX® Deep Red fluorescence intensity. This indicates an increase in ROS production in the presence of the tested compounds.
# ROS generation was investigated using flow cytometry assay and CellROX® Deep Red flow cytometry kit. For this HuTu 80 cells were harvested at 2000 rpm for 5 min and then washed twice with ice-cold PBS, followed by resuspension in 0.1 mL of medium without FBS, to which was added 0.2 μL of Cell ROX® Deep Red and incubated at 37 °C for 30 min After three times washing the cells and suspending them in PBS, the production of ROS in the cells was immediately monitored using flow cytometer Guava easy Cyte, MERCK, NJ, USA).
# [10] = tested on: human cancer cell lines; test: MTT cytotoxicity, summary statements over several cell lines; assay type: cell-based; conditions: for IC50: Homo sapiens, HuTu80, lines other than HuTu 80 and PC3, read-out: IC50 concentration values against other human cancer lines
# [11] = tested on: T98G glioblastoma cell line; test: MTT cytotoxicity, T98G; assay type: cell-based, human; conditions: for IC50: MTT, mean ± SD, triplicate; for SI T98G: IC50 normal cells (WI38) / IC50 cancer cells, ns = no selectivity
# [12] = In vitro rhodamine B release, dialysis bag diffusion method; assay type: physicochemical; conditions: aqueous solution without nanoparticles; phosphate buffer 0.025 M, pH 7.4, 37 °C
# Experimental: The monitoring of rhodamine B release from liposomes was performed using the dialysis bag diffusion method. Dialysis bags retain liposomes and allow the released rhodamine B to diffuse into the medium. The bags were soaked in Milli-Q water for 12 h before use. Then, 0.4 mL of liposomes were poured into the dialysis bag. The two bag ends were sealed with clamps. The bags were then placed in a vessel containing 100 mL of 0.025 M sodium phosphate buffer pH 7.4, the receiving phase. The vessel was placed in a thermostatic shaker (New Brunswick, NJ, USA) at 37 °C, under a stirring rate of 150 rpm. At predetermined time intervals, 0.5 mL of samples were withdrawn, and their absorbance at 554 nm was measured using Perkin Elmer λ35 (Perkin Elmer Instruments, Norwalk, CT, USA). All samples were analyzed in triplicate. The extinction coefficient of rhodamine B is 106,089 M^−1 cm^−1 at pH = 7.4.
# [13] = Homo sapiens, read-out: IC50 PC3, MTT
SMILES,apoptosis induction [1],"IC50 ([2]; Homo sapiens, WI-38, MTT)","IC50 [3, 13]",SI PC3 [3],"IC50 ([4]; Homo sapiens, MCF7, MTT)",SI MCF-7 [4],"IC50 ([5]; Homo sapiens, A549, MTT)",SI A549 [5],"% cells with J-aggregate (red, high membrane potential) ([6]; IC50, 48 h)","% cells with J-monomer (green, decreased membrane potential) ([6]; IC50, 48 h)","% cells with J-aggregate (red, high membrane potential) ([6]; IC50/2, 48 h)","% cells with J-monomer (green, decreased membrane potential) ([6]; IC50/2, 48 h)",effect on mitochondrial membrane potential [6],"IC50 ([7]; Homo sapiens, HuTu80, MTT)",SI HuTu 80 [7],"IC50 ([8]; Homo sapiens, M-HeLa)",SI M-HeLa [8],"CellROX Deep Red fluorescence intensity (ROS production) ([9]; IC50, 48 h)","CellROX Deep Red fluorescence intensity (ROS production) ([9]; IC50/2, 48 h)",SI T98G [11],further results
"CCCCCCCCCCOCC(O)C[P+](c1ccccc1)(c1ccccc1)c1ccccc1 (stereo not drawn) [3j, (3-(Decyloxy)-2-hydroxypropyl)triphenylphosphonium trifluoromethanesulfonate]",actively induce apoptosis,3100 ± 200 nM,600 ± 50 nM,5.2,2900 ± 200 nM,1.1,3700 ± 300 nM,ns,50.1%,48.2%,89.6%,10.4%,decrease the mitochondrial membrane potential,500 ± 30 nM,6.2,1100 ± 90 nM,3,3700,2500,2,"cytotoxic effect against the PC3 line relative to doxorubicin [3]: two times higher than doxorubicin; anti-cancer activity against the HuTu 80 cell line relative to doxorubicin [7]: comparable to doxorubicin activity; ROS generation [9]: most active to generate ROS; IC50 [10]: 1100 to 3700 nM; IC50 ([11]; Homo sapiens, T98G): 1700 ± 100 nM"
"CCCCCCCCCCCCCCCC(=O)OCC(O)C[P+](c1ccccc1)(c1ccccc1)c1ccccc1 (stereo not drawn) [3k, (2-Hydroxy-3-palmitoyloxy-propyl)triphenylphosphonium trifluoromethanesulfonate]",actively induce apoptosis,16200 ± 1300 nM,25000 ± 2000 nM,ns,30500 ± 2500 nM,ns,54700 ± 4400 nM,ns,26.2%,73.8%,35%,65%,decrease the mitochondrial membrane potential,3500 ± 300 nM,5,40300 ± 3500 nM,ns,3800,2000,ns,"ROS generation [9]: most active to generate ROS; IC50 ([11]; Homo sapiens, T98G): 55800 ± 4700 nM"
"C=CCOCC(O)C[P+](c1ccccc1)(c1ccccc1)c1ccccc1.[I-] (stereo not drawn) [4c, (3-(Allyloxy)-2-hydroxypropyl)triphenylphosphonium iodide]",actively induce apoptosis,–,–,5.3,–,1.4,–,1.4,51.1%,46.9%,88.5%,11.3%,decrease the mitochondrial membrane potential,–,12.3,–,3.4,4300,3200,1.8,"IC50 ([2]; MTT): 3700 ± 300 nM; IC50 ([3]; read-out: IC50 PC3, MTT): 700 ± 60 nM; cytotoxic effect against the PC3 line relative to doxorubicin [3]: two times higher than doxorubicin; IC50 ([4]; MTT): 2700 ± 200 nM; IC50 ([5]; MTT): 2600 ± 200 nM; IC50 ([7]; MTT): 300 ± 20 nM; anti-cancer activity against the HuTu 80 cell line relative to doxorubicin [7]: comparable to doxorubicin activity; IC50 [8]: 1100 ± 90 nM; ROS generation [9]: most active to generate ROS; IC50 [10]: 1100 to 3700 nM; IC50 [11]: 2000 ± 100 nM"
"COc1cccc2c1C(=O)c1c(O)c3c(c(O)c1C2=O)C[C@@](O)(C(=O)CO)C[C@@H]3O[C@H]1C[C@H](N)[C@H](O)[C@H](C)O1 [Dox, doxorubicin, reference compound]",–,800 ± 70 nM,1400 ± 100 nM,ns,400 ± 30 nM,2,700 ± 500 nM,1.1,–,–,–,–,–,200 ± 10 nM,4,2100 ± 100 nM,ns,–,–,ns,"selectivity relative to the leading compounds [10]: significantly inferior to the leading compounds in selectivity; IC50 ([11]; Homo sapiens, T98G): 2000 ± 100 nM"
CCN(CC)c1ccc2c(-c3ccccc3C(=O)O)c3ccc(=[N+](CC)CC)cc-3oc2c1 [Rhodamine B],–,–,–,–,–,–,–,–,–,–,–,–,–,–,–,–,–,–,–,–,time of release of 50% Rhodamine B [12]: ≤ 20 min
